Results: US20230302031A1, “Modulators Of Purinergic Receptors and Related Immune Checkpoint For Treating Acute Respiratory Distress Syndrome” (priority 2020, published 2023)
Read-outs that look alike come from different tables or passages of the source.

Experiments:
[1] = test system: PMA-treated THP1 macrophages; assay: IL-1β release from LPS+ATP-stimulated PMA-THP1 macrophages (western blot/ELISA); assay type: cell-based, human; settings: for IL-1β release: 100 μM compound, 10 ng/mL LPS 3 hours + 5 mM ATP 6 hours, FIG. 6E, 6I
Protocol: (§1) Human THP-1 cells were cultured in RPMI 1640 media, supplemented with 10% FBS and differentiated by treatment for 3 hours with 100 nM phorbol-12-myristate-13-acetate (PMA, Invivogen). After 2 days, macrophage THP-1 cells were stimulated first 3 hours with ultrapure LPS from E. coli (10 ng/ml, LPS) and then stimulated for 6 hours with ATP (5 mM, Sigma) or treated with 50 ng or 20 ng of IFNg during 24 or 12 hours as indicated. Then, supernatants and cells were collected for western blot analysis.
(§2) Cells or supernatant were lysed in appropriated buffer (250 mM NaCl, 0.1% NP-40, 5 mM EDTA, 10 mM Na3VO4, 10 mM NaF, 5 mM DTT, 3 mM Na4P2O7, 1 mM EGTA, 10 mM Glycerol phosphate, 10 mM Tris-Hcl (pH=7.5) and the protease and phosphatase inhibitors (Roche)). Equal amount of supernatant or 10-40 μg of protein extracts were run on 4-12% or 10% SDS-PAGE and transferred at 4° C. onto a nitrocellulose membrane (0.2 Micron). After incubation for 2 hours at room temperature with 5% nonfat milk or BSA (Bovine Serum Albumine) in Tris-buffered saline and 0.1% Tween 20 (TBS-Tween), membranes were incubated with primary antibody at 4° C. overnight. […] The primary antibodies against. […] Western blots shown are representative of at least of three independent experiments.
Plasma serum from P2y2^+/+ and P2y2^−/− mice and supernatants harvested from PMA-stimulated THP1 macrophages that were depleted or not for P2Y2 or NLRP3, and/or stimulated with 10 ng/mL LPS during 3 hours and 5 mM ATP during 6 hours or with 20 ng/mL IFNγ, in presence or in absence of 100 μM Suramin, 100 μM OxATP, 100 μM Kaempferol or 100 μM Diquafosol at indicated times were analyzed using western blot or ELISA for IL-1β (Ebioscience) and IL-10 (BD) according to the manufacturers' instructions.

SARS-CoV-2 [2] = assay type: cell-based; settings: FIG. 7K; for ACE2 expression in response to SARS-CoV-2 infection: western blot; for intracellular expression of Spike: Vero E6, 24 hours, 50 μM PPADS, 100 μM OxATP, 100 μM BzATP
ACE2 [3] = assay type: cell-based; settings: ACE2-A549, 24 hours; same concentrations; FIG. 14B
[4] = test system: Bleomycin-induced lung inflammation; assay: Mouse model of bleomycin-induced lung inflammation; assay type: in vivo, C57BL/6 mice; settings: 300 μg intraperitoneally every 3 days
SARS-CoV-2 [5] = assay type: cell-based; settings: Vero E6, 72 hours infection, MOI 1-2, indicated concentrations, MTT
ACE2 [6] = assay type: cell-based, African green monkey; settings: Vero E6, 24 hours; 500 μM UTP, 100 μM Diquafosol, 5 μM Denufosol, 50 μM PPADS, 100 μM OxATP, 100 μM BzATP; FIG. 14A
SARS-CoV-2 [7] = assay: SARS-CoV-2 replication in Vero E6 cells (RdRp and E mRNA, quantitative RT-PCR); assay type: cell-based; settings: 500 μM UTP, 100 μM Diquafosol, 5 μM Denufosol; for amount of RdRp and E mRNA (viral replication): Vero E6, 16 and 24 hours of infection, 50 μM PPADS, 100 μM BzATP, FIG. 2; for replication of SARS-CoV-2 and/or associated cytopathogenic effects: Vero E6, RdRp and E mRNA, Spike-positive cells, viability, FIG. 7D, 7E, 7I-7K, 12A, 12B
SARS-CoV-2 [8] = assay: SARS-CoV-2 replication in ACE2-A549 cells (RdRp and E mRNA, Spike expression); assay type: cell-based; settings: ACE2-A549, 48 hours; 500 μM UTP, 100 μM Diquafosol, 5 μM Denufosol; FIG. 7F-H
[9] = test system: PMA-treated THP1 macrophages; assay: IRF5 expression in IFNγ-stimulated PMA-THP1 macrophages (western blot); assay type: cell-based, human
Protocol: as §1, §2
Total cellular proteins were extracted and lysed in appropriated buffer containing 250 mM NaCl, 0.1% NP-40, 5 mM EDTA. 10 mM Na3VO4, 10 mM NaF, 5 mM DTT, 3 mM Na4P2O7, 1 mM EGTA, 10 mM Glycerol phosphate, 10 mM Tris-HCl (pH=7.5) and the protease and phosphatase inhibitors (Roche)). Then, 10-40 μg of protein extracts were run on 4-12% or 12% SDS-PAGE and transferred at 4° C. onto a nitrocellulose membrane (0.2 Micron). After 2 hours saturation at room temperature with 5% nonfat milk or BSA (Bovine Serum Albumin) in Tris-buffered saline and 0.1% Tween 20 (TBS-Tween), nitrocellulose membranes were incubated with primary antibody at 4° C. overnight. […] The primary antibodies against P2Y2 (#APR-010) and P2X7 (#APR-004) were obtained from Alomone laboratories. […]

P2Y2-NLRP3 interaction = target: T1, P2Y2-NLRP3 interaction (Homo sapiens, UniProt P41231); assay: P2Y2-NLRP3 proximity ligation assay in PMA-primed THP1; assay type: cell-based; settings: 100 μM, 96 hours; FIG. 10A
T1 construct: Frequency of P2Y2-NLRP3 PLA+ cells detected after treatment of PMA-primed THP1 with 100 μM AR-C118925XX; endogenous in cells; host or cells: PMA-primed THP1 macrophages (ATCC)

ACE2-A549 cells = settings: ACE2-A549, 72 hours, MTT; PPADS and OxATP at 100 μM; BzATP indicated concentrations
SARS-CoV-2 [10] = assay type: cell-based; settings: Vero E6, 24 hours, 50 μM PPADS, 100 μM OxATP
Vero E6 cells = settings: Vero E6, 72 hours, MTT; PPADS and OxATP at 100 μM; BzATP indicated concentrations

T1 sequence (P41231 whole entry): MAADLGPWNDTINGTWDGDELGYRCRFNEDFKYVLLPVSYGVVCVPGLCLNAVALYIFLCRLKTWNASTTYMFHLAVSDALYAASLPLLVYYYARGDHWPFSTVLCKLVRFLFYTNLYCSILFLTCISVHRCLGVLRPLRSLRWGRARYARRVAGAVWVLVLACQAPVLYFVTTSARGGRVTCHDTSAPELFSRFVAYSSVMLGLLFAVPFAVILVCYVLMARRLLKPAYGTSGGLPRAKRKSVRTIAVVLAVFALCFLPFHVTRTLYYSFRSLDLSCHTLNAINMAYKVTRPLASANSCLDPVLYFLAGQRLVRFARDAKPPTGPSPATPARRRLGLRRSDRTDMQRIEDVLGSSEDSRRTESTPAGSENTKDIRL

Row | Molecule | IL-1β release [1] | ACE2 expression in response to SARS-CoV-2 infection (SARS-CoV-2 [2]) | ACE2 membrane expression (ACE2 [3]) | cytopathogenicity / cytopathogenic effects of SARS-CoV-2 (SARS-CoV-2 [5]) | ACE2 membrane expression (ACE2 [6]) | amount of RdRp and E mRNA (viral replication) (SARS-CoV-2 [7]) | replication of SARS-CoV-2 and/or associated cytopathogenic effects (SARS-CoV-2 [7]) | replication of SARS-CoV-2 and/or associated cytopathogenic effects (SARS-CoV-2 [8]) | intracellular expression of Spike (SARS-CoV-2 [2]) | viability of uninfected cells (ACE2-A549 cells) | viability of uninfected cells (Vero E6 cells) | other results
1 | Cc1ccc(C(=O)Nc2ccc(S(=O)(=O)O)c3cc(S(=O)(=O)O)cc(S(=O)(=O)O)c23)cc1NC(=O)c1cccc(NC(=O)Nc2cccc(C(=O)Nc3cc(C(=O)Nc4ccc(S(=O)(=O)O)c5cc(S(=O)(=O)O)cc(S(=O)(=O)O)c45)ccc3C)c2)c1 [Suramin] | increased IL-1β release |  |  |  |  |  |  |  |  |  |  | 
2 | O=c1ccn([C@@H]2O[C@H](COP(=O)(O)OP(=O)(O)OP(=O)(O)OP(=O)(O)OC[C@H]3O[C@@H](n4ccc(=O)[nH]c4=O)[C@H](O)[C@@H]3O)[C@@H](O)[C@H]2O)c(=O)[nH]1 [Diquafosol] | impaired IL-1β release | repressed ACE2 down regulation | did not change | exhibited inhibitory effects on cytopathogenicity | did not change | strongly reduced the amount of RdRp and E mRNA | strongly blocked the replication of SARS-CoV-2 and/or reduced associated cytopathogenic effects | strongly blocked the replication of SARS-CoV-2 and/or reduced associated cytopathogenic effects |  |  |  | Bleomycin-induced lung inflammation ([4]; 50 UI bleomycin intratracheal, FIG. 17): abolishes Bleomycin-induced lung inflammation; lung lesions (CT scan) ([4]; day 20, FIG. 17A): reduces lung lesions induced by bleomycin treatment; release of IL-1β in supernatant ([1]; indicated concentrations, 12 hours, LPS+ATP, FIG. 1B): impaired the release of IL-1β; IFNγ-mediated increase expression of IRF5 ([9]; PMA-THP1 macrophages, FIG. 6P): impaired IFNγ-mediated increase expression of IFN regulatory factor 5 (IRF5); IRF5 expression ([9]; indicated concentrations, 20 ng IFNγ 12 hours, FIG. 1D): confirmed
3 | Cc1ccc2c(c1)C=Cc1cc(C)ccc1C2c1cn(Cc2ccc(C(=O)Nc3nn[nH]n3)o2)c(=O)[nH]c1=S [AR-C118925XX] |  |  |  |  |  |  |  |  |  |  |  | P2Y2-NLRP3 interaction (frequency of PLA+ cells) (P2Y2-NLRP3 interaction): enhanced the P2Y2-NLRP3 interaction
4 | Nc1ncnc2c1ncn2[C@@H](C=O)O[C@@H](C=O)COP(=O)(O)OP(=O)(O)OP(=O)(O)O [OxATP, oxidized ATP] | reduced IL-1β release | repressed ACE2 down regulation | did not change | reduced | did not change |  |  |  | reduced | partially affected viability | partially affected viability | frequency of Spike-positive cells (SARS-CoV-2 [10]): reduced the frequency of Spike-positive cells
5 | Cc1nc(N=Nc2ccc(S(=O)(=O)O)cc2S(=O)(=O)O)c(COP(=O)(O)O)c(C=O)c1O [PPADS, pyridoxal-phosphate-6-azopheny-2′,4′-disulfonate] |  |  | did not change | reduced | did not change | repressed RdRp and E mRNA expression |  |  | reduced | partially affected viability | partially affected viability | frequency of Spike-positive cells (SARS-CoV-2 [10]): reduced the frequency of Spike-positive cells
6 | O=c1ccn([C@@H]2O[C@H](COP(=O)(O)OP(=O)(O)OP(=O)(O)OP(=O)(O)Oc3ccccc3)[C@@H](O)[C@H]2O)c(=O)[nH]1 [MRS2768] |  |  |  |  |  |  |  |  |  |  |  | release of IL-1β in supernatant ([1]; 50 μM, 1 hour pretreatment, 10 ng/ml LPS 3 hours + 5 mM ATP 6 hours, FIG. 1A): strongly inhibited the release of IL-1β
7 | Nc1ccn([C@H]2C[C@H](O)[C@@H](COP(=O)(O)OP(=O)(O)OP(=O)(O)OP(=O)(O)OC[C@H]3O[C@@H](n4ccc(=O)[nH]c4=O)[C@H](O)[C@@H]3O)O2)c(=O)n1 [Denufosol] |  |  | did not change | exhibited inhibitory effects on cytopathogenicity | did not change | strongly reduced the amount of RdRp and E mRNA | strongly blocked the replication of SARS-CoV-2 and/or reduced associated cytopathogenic effects | strongly blocked the replication of SARS-CoV-2 and/or reduced associated cytopathogenic effects |  |  |  | 
8 | O=c1ccn([C@@H]2O[C@H](COP(=O)(O)OP(=O)(O)OP(=O)(O)O)[C@@H](O)[C@H]2O)c(=O)[nH]1 [UTP, Uridine 5′-triphosphate] |  | repressed ACE2 down regulation | did not change | exhibited inhibitory effects on cytopathogenicity | did not change | strongly reduced the amount of RdRp and E mRNA | strongly blocked the replication of SARS-CoV-2 and/or reduced associated cytopathogenic effects | strongly blocked the replication of SARS-CoV-2 and/or reduced associated cytopathogenic effects |  |  |  | IRF5 expression ([9]; 10 and 100 μM, 50 ng IFNγ 24 hours, FIG. 1C): decrease of IRFS expression
9 | 2′(3′)-O-(4-Benzoylbenzoyl) adenosine 5′-triphosphate [BzATP] |  | reduces ACE2 expression levels | did not change |  | did not change | strongly enhanced viral replication |  |  | increase of intracellular Spike expression levels | did not show a significant impact | did not show a significant impact | entry of SARS-CoV2 into host cells (SARS-CoV-2 [2]; Vero E6): significantly increased the entry of SARS-CoV2 into host cells
